Laboratory results from ChEMBL document CHEMBL1128694, “Specific inhibition of poly(ADP-ribose) glycohydrolase by adenosine diphosphate (hydroxymethyl)pyrrolidinediol” (J Med Chem, 1995).

Columns and labels:
Conditions in all cases: Meleagris gallopavo
[1] = target: T1, ADP-ribosyltransferase (Homo sapiens) (UniProt P52961); test: Inhibition of ADP-ribosyltransferase 1 that catalyze ADP-ribosyltransferase was measured at 0 uM concentration
T1 sequence (whole entry): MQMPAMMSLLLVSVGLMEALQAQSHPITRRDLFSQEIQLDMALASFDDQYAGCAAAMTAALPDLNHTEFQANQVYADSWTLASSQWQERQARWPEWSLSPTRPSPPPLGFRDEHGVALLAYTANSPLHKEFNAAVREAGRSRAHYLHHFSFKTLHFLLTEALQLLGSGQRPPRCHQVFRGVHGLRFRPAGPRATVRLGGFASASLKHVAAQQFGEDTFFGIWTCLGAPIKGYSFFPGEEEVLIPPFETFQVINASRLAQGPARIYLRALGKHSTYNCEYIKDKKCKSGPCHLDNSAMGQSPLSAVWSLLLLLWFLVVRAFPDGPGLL

[2] = target: T1, ADP-ribosyltransferase (Homo sapiens); test: Inhibition of ADP-ribosyltransferase 1 that catalyze ADP-ribosyltransferase was measured at 100 uM concentration
[3] = target: T1, ADP-ribosyltransferase (Homo sapiens); test: Inhibition of ADP-ribosyltransferase 1 that catalyze ADP-ribosyltransferase was measured at 1000 uM concentration

## Nc1ncnc2c1ncn2[C@@H]1O[C@H](COP(=O)(O)OP(=O)(O)OC[C@H]2NC[C@H](O)[C@@H]2O)[C@@H](O)[C@H]1O
[1]
  Activity: 0.06 units/assay
[2]
  Activity: 0.07 units/assay
[3]
  Activity: 0.05 units/assay
